The subject of test [1] is HepG2. In words: Antiproliferative activity against human HepG2 cells incubated for 72 hrs by MTT assay. As to conditions: HepG2, 72 h. The class given is functional, cell-based. In general terms: Formazan colour is commonly taken as a measure of viable cells.
Test [2] deals with MCF7. The test can be described thus: Antiproliferative activity against human MCF7 cells incubated for 72 hrs by MTT assay. The class given is functional, cell-based. As to conditions: MCF7, 72 h.
Test [3] relates to DU-145. The test can be described thus: Antiproliferative activity against human DU145 cells incubated for 72 hrs by MTT assay. The class given is functional, cell-based. As to conditions: DU-145, 72 h.
Test [4] has as its system SH-SY5Y. The test can be described thus: Antiproliferative activity against human SH-SY5Y cells incubated for 72 hrs by MTT assay. It is filed as functional, cell-based.
Test [5] concerns A549. The test can be described thus: Antiproliferative activity against human A549 cells incubated for 72 hrs by MTT assay. The class given is functional, cell-based. As to conditions: A549, 72 h.
A short description of test [6]: Cytotoxicity against human CCC-HPF1 cells assessed as decrease in cell viability incubated for 72 hrs by MTT assay. The class given is cell-based. As to conditions: CCC-HPF-1, 72 h.

A word on the IC50: it is the concentration at which inhibition is half-maximal. As for `O=[N+]([O-])c1ccc(COc2cccc(Nc3ncnc4cc5c(cc34)OCCOCCO5)c2)cc1`, the concentration for half-maximal inhibition (IC50) in test [1] was 65.3 µM; in test [2], 42.4 µM; in test [3], more than 100 µM; in test [4] it was 36.6 µM; in test [5] it was 15.5 µM.
As to `FC(F)(F)c1ccc(COc2ccccc2Nc2ncnc3cc4c(cc23)OCCOCCO4)cc1`, the IC50 in test [1], in test [2], in test [3], in test [4] and in test [5] was more than 100 µM in each case.
Turning to `O=[N+]([O-])c1ccc(COc2ccc(Nc3ncnc4cc5c(cc34)OCCOCCOCCOCCO5)cc2)cc1`, the IC50 in test [1], in test [2], in test [3], in test [4] and in test [5] was more than 100 µM throughout.
`c1ccc(COc2ccccc2Nc2ncnc3cc4c(cc23)OCCOCCO4)cc1`: the IC50 in test [1] is more than 100 µM; in test [2] it was more than 100 µM; in test [3] it was more than 100 µM; in test [4], 93.7 µM; in test [5] it was more than 100 µM.
On to `c1ccc(COc2ccc(Nc3ncnc4cc5c(cc34)OCCOCCOCCOCCO5)cc2)cc1`, for which the IC50 in test [6] turned out to be 33.7 µM; in test [1], 11.9 µM; in test [2], 12 µM; in test [3], 8.8 µM; in test [4], 5.25 µM; in test [5] it was 29.5 µM.
For `c1ccc(COc2cccc(Nc3ncnc4cc5c(cc34)OCCOCCO5)c2)cc1`, the IC50 in test [6] is more than 100 µM; in test [1], more than 100 µM; in test [2], 40.9 µM; in test [3], more than 100 µM; in test [4], 68.4 µM; in test [5], 7.59 µM.
Consider `O=[N+]([O-])c1ccc(COc2cccc(Nc3ncnc4cc5c(cc34)OCCOCCOCCO5)c2)cc1`, for which the IC50 in test [1], in test [2], in test [3], in test [4] and in test [5] was more than 100 µM each time.
On to `O=[N+]([O-])c1ccc(COc2ccc(Nc3ncnc4cc5c(cc34)OCCOCCO5)cc2)cc1`, for which the IC50 in test [6] was 47.1 µM; in test [1], more than 100 µM; in test [2] it was 39.7 µM; in test [3], more than 100 µM; in test [4], 55.2 µM; in test [5], 8.62 µM.
Consider `FC(F)(F)c1ccc(COc2cccc(Nc3ncnc4cc5c(cc34)OCCOCCOCCOCCO5)c2)cc1`, for which the IC50 in test [6] amounted to 45.2 µM; in test [1], 5.7 µM; in test [2] it was 8.48 µM; in test [3] it was 26.9 µM; in test [4], 8.56 µM; in test [5] it was 8.52 µM.
`c1ccc(COc2ccccc2Nc2ncnc3cc4c(cc23)OCCOCCOCCOCCO4)cc1`: the IC50 in test [1] is 29.2 µM; in test [2], more than 100 µM; in test [3], more than 100 µM; in test [4], 24 µM; in test [5] it was 48.5 µM.
Take `O=[N+]([O-])c1ccc(COc2cccc(Nc3ncnc4cc5c(cc34)OCCOCCOCCOCCO5)c2)cc1`: the IC50 in test [6] was more than 100 µM; in test [1] it was 9.82 µM; in test [2] it was 6.41 µM; in test [3], 13.8 µM; in test [4] it was 8.42 µM; in test [5] it was 19.8 µM.
Consider `FC(F)(F)c1ccc(COc2cccc(Nc3ncnc4cc5c(cc34)OCCOCCOCCO5)c2)cc1`, for which the IC50 came out at 33.3 µM in test [6]; 34 µM in test [1]; 17.6 µM in test [2]; 2.76 µM in test [3]; 20 µM in test [4]; 24.9 µM in test [5].
Turning to `FC(F)(F)c1ccc(COc2ccc(Nc3ncnc4cc5c(cc34)OCCOCCOCCO5)cc2)cc1`, the IC50 was more than 100 µM in test [1]; 28.5 µM in test [2]; more than 100 µM in test [3]; more than 100 µM in test [4]; 30.7 µM in test [5].
Consider `O=[N+]([O-])c1ccc(COc2ccccc2Nc2ncnc3cc4c(cc23)OCCOCCO4)cc1`, for which the IC50 in test [1] was 50.2 µM; in test [2] it was more than 100 µM; in test [3], 85.6 µM; in test [4], more than 100 µM; in test [5], 28.4 µM.
In the case of `FC(F)(F)c1ccc(COc2ccccc2Nc2ncnc3cc4c(cc23)OCCOCCOCCO4)cc1`, the IC50 in test [1], in test [2], in test [3], in test [4] and in test [5] was more than 100 µM throughout.
Take `c1ccc(COc2ccc(Nc3ncnc4cc5c(cc34)OCCOCCO5)cc2)cc1`: the IC50 in test [1] is 55.5 µM; in test [2], more than 100 µM; in test [3] it was more than 100 µM; in test [4], 39.3 µM; in test [5] it was 43.9 µM.
As for `FC(F)(F)c1ccc(COc2ccc(Nc3ncnc4cc5c(cc34)OCCOCCO5)cc2)cc1`, the IC50 was more than 100 µM in test [1]; more than 100 µM in test [2]; more than 100 µM in test [3]; 30.4 µM in test [4]; more than 100 µM in test [5].
As to `c1ccc(COc2ccccc2Nc2ncnc3cc4c(cc23)OCCOCCOCCO4)cc1`, the IC50 in test [6] is more than 100 µM; in test [1], 37.3 µM; in test [2], 63.3 µM; in test [3], 13.9 µM; in test [4], 98.4 µM; in test [5] it was 6.94 µM.
Consider `O=[N+]([O-])c1ccc(COc2ccccc2Nc2ncnc3cc4c(cc23)OCCOCCOCCO4)cc1`, for which the IC50 in test [1] was 60.8 µM; in test [2] it was more than 100 µM; in test [3], more than 100 µM; in test [4], 75.5 µM; in test [5], 29.9 µM.
Regarding `FC(F)(F)c1ccc(COc2cccc(Nc3ncnc4cc5c(cc34)OCCOCCO5)c2)cc1`, the IC50 is more than 100 µM in test [1]; more than 100 µM in test [2]; more than 100 µM in test [3]; 19.3 µM in test [4]; more than 100 µM in test [5].
On to `c1ccc(COc2cccc(Nc3ncnc4cc5c(cc34)OCCOCCOCCO5)c2)cc1`, for which the half-maximal inhibitory concentration (IC50) in test [1] was more than 100 µM; in test [2], more than 100 µM; in test [3], more than 100 µM; in test [4], 22.8 µM; in test [5] it was more than 100 µM.
As for `c1ccc(COc2ccc(Nc3ncnc4cc5c(cc34)OCCOCCOCCO5)cc2)cc1`, the IC50 was more than 100 µM in test [6]; more than 100 µM in test [1]; 8.34 µM in test [2]; more than 100 µM in test [3]; 23.9 µM in test [4]; more than 100 µM in test [5].

The values above are taken from ChEMBL document CHEMBL4304802, “Novel promising 4-anilinoquinazoline-based derivatives as multi-target RTKs inhibitors: Design, molecular docking, synthesis, and antitumor activities in vitro and vivo” (Bioorg Med Chem, 2019).
